Experimental findings from article PMC11109052, “Metabolism characterization and toxicity of N-hydap, a marine candidate drug for lung cancer therapy by LC–MS method” (Natural Products and Bioprospecting, 2024) are described below.

Series [1] relates to RLMs. The series is described as follows: Kinetics of N-hydap glucuronidation in RLMs. The class given is in vitro ADME, rat. The conditions noted are these: RLM. As for the experimental part:
In this study, the rats were executed by drawing blood from the abdominal aorta and mice were sacrificed with cervical dislocation before the liver and kidneys were excised. The liver and kidneys were removed, and washed with chilled cleansing solution (contains 8 mM KH2PO4, 5.6 mM EDTA·K2·2H2O, 1 mM DTT and 229.6 μM PMSF), homogenized in a tissue homogenate buffer with a pH of 7.4, (consisting of […], 8 mM K2HPO4, 250 mM sucrose, 1 mM EDTA·K2·2H2O and 229.6 μM PMSF). Subsequently, the homogenate was centrifuged at 10,400 rpm at 4 °C for 15 min, and the supernatant was then centrifuged at 35,000 rpm at 4 °C for 60 min. A 250 mM sucrose buffer was added to the pellet to reconstitute and the resuspension was stored at − 80 °C until use. Microsome protein concentrations were measured by Omni-Easy™ Instant BCA Protein Assay Kit.
Various microsomes including HLMs, HKMs, HIMs, RLMs, RKMs, MLMs and MKMs were involved in CYP and UGT reactions of N-hydap. […]
The substrate concentrations used for HLMs were 0.05, 0.5, 2, 2.5, 5, 10, 25, 50, and 100 μM. […] The rates of N-hydap-G by enzymes were expressed as nmol/mg/min, representing the amount of metabolites formed per minute per milligram of protein. Kinetic parameters were determined by analyzing the Eadie–Hofstee plots. […]

The subject of series [2] is Ugt1a9. The series is described as follows: Real-time PCR mRNA level after 7 days gavage: Ugt1a9. The class given is in vivo, mice. Further details: key to UGT1A9 mNA expression: ↑: up-regulation; ↓: down-regulation; –: no change. The method, then:
Mice were randomly divided into four groups, with eight animals in each group. The mice received oral pretreatment with N-hydap for 7 days at doses of 2, 5, and 10 mg/kg/day, which were considered as the low dose, medium dose, and high dose, respectively. Correspondingly, the control group received PBS. On the 8th day, the liver and kidneys were removed, and organs from eight mice per group were combined to prepare MLMs and MKMs using the detailed procedures above. Subsequently, we determined the activity of CYP and UGT enzymes by specific substrate metabolized with MLMs (0.5 mg/mL) and MKMs (0.2 mg/mL) in vitro. Specifically, the following selective substrates were used for the respective enzymes: PH (1 μM) for CYP1A2, DIC (1 μM) for CYP2C9, MP (90 μM) for CYP2C19, DM (1 μM) for CYP2D6, CZX (10 μM) for CYP2E1, Tes (1 μM) for CYP3A4, SN38 (1 μM) for UGT1A1, CACD (100 μM) for UGT1A3, Sero (20 μM) for UGT1A6, and Prop (1 μM) for UGT1A9. All substrates were dissolved in methanol or DMSO. The incubation procedure was carried out as mentioned above, and the reaction was terminated with VER (20 ng/mL) in ESI+ mode and CLP (200 ng/mL) in ESI− mode. In the ex vivo experiments, the activity of enzymes was measured by quantifying the production of various metabolites (nM/mg protein/min). The metabolites and their corresponding enzymes are as follows: APAP from PH, 4-OH-DIC from DIC, 4-OH-MP from MP, DXO from DM, 6-OH-CZX from CZX, 6-OH-Tes from Tes, SN38-G from SN38, CACD-G from CACD, Sero-G from Sero, Prop-G from Prop. The measurements were performed using multiple reaction monitoring (MRM) transitions, which are specific mass spectrometry transitions used for quantification. […]
Total RNA from liver and kidney samples taken after 7 days of N-hydap gavage was extracted using the Animal Total RNA Isolation Kit (Foregene, Chengdu, Sichuan, China) following the manufacturer’s instructions. The concentrations of total RNA were determined by a nucleic acid concentration tester at 260/280 nm. […]
(In general: Quantitative PCR measures a nucleic acid by following its amplification.)

`CC1CCC2C(C=CC(C)C2C(=O)c2c(O)c(C3(O)CCC(O)C4OC43)cn(O)c2=O)C1` (stereo not shown) [N-hydap, N-Hydroxyapiosporamide]: in series [1], the Km was 0.357 µM. For the same molecule, the “UGT1A9 mNA expression” value in series [2] (Kidney) and in series [2] (Liver) was “–” each time. In series [2] (mice, 2, 5, 10 mg/kg p.o. 7 days), the “mRNA levels of Ugt1a9” value is “No significant changes”.

For orientation: Km means the concentration of substrate that gives half-maximal velocity.
